Values of other authors as cited in article PMC3591469 (Bioorganic & medicinal chemistry letters, 2011).

System: recombinant Brd4 protein derived from bacteria
Settings: cell-permeable small molecule

Cc1sc2c(c1C)C(c1ccc(Cl)cc1)=N[C@@H](CC(=O)OC(C)(C)C)c1nnc(C)n1-2 [JQ1]
inhibition of recombinant Brd4: selective and potent inhibitor
